Measurements: PubChem BioAssay (NCI)
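Cultured in 96-well plates, cells were exposed to test compound for 48 hours across five concentrations. The concentration for 50% growth inhibition is given as GI50. Definition used: TGI = concentration required for complete inhibition of growth.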

What was measured:
Assay in all cases: NCI-60 cell line screen, 48 h
SNB-19 CNS = system: SNB-19 CNS
HOP-92 NSCLC = system: HOP-92 NSCLC
MDA-MB-435 = system: MDA-MB-435
T-47D breast = system: T-47D breast
HCC-2998 colon = system: HCC-2998 colon
COLO 205 colon = system: COLO 205 colon
NCI-H226 lung = system: NCI-H226 lung
HS 578T breast = system: HS 578T breast
SK-OV-3 ovarian = system: SK-OV-3 ovarian
SK-MEL-2 melanoma = system: SK-MEL-2 melanoma

Row | SMILES | TGI (SNB-19 CNS) | TGI (HOP-92 NSCLC) | TGI (MDA-MB-435) | TGI (T-47D breast) | TGI (HCC-2998 colon) | TGI (COLO 205 colon) | TGI (NCI-H226 lung) | TGI (HS 578T breast) | TGI (SK-OV-3 ovarian) | TGI (SK-MEL-2 melanoma) | GI50 (SNB-19 CNS) | GI50 (HOP-92 NSCLC) | GI50 (MDA-MB-435) | GI50 (T-47D breast) | GI50 (HCC-2998 colon) | GI50 (COLO 205 colon) | GI50 (NCI-H226 lung) | GI50 (HS 578T breast) | GI50 (SK-OV-3 ovarian) | GI50 (SK-MEL-2 melanoma)
1 | COc1cccc2c1C(=O)OC2c1cccc2ccccc12 (stereo not given) | > 100 µM | > 100 µM | > 100 µM | > 100 µM | > 100 µM | > 100 µM | > 100 µM | > 100 µM | > 100 µM | > 100 µM |  |  |  |  |  |  |  |  |  | 
2 | N#Cc1c(N)nc(NCc2ccccc2)c(C#N)c1-c1ccc(Cl)cc1Cl | > 100 µM | > 100 µM | > 100 µM | > 100 µM | > 100 µM | > 100 µM | > 100 µM | > 100 µM | > 100 µM | > 100 µM | > 100 µM | 1.12 µM | > 46.8 µM | 72.3 µM | > 100 µM | > 100 µM | > 100 µM | 85.7 µM | > 100 µM | > 77.2 µM
3 | COc1ccc(N(/C=C/C(=O)C(F)(F)F)CC(=O)c2ccc(Cl)cc2)cc1 | 47.1 µM | 41.4 µM | 22 µM | > 100 µM | 36.2 µM | 40.7 µM | 31.6 µM | 67.3 µM | 36.4 µM | 31.8 µM | 18.8 µM | 15.9 µM | 5.68 µM | 21.9 µM | 17 µM | 18.6 µM | 16.5 µM | 25 µM | 19.2 µM | 15.4 µM
4 | CC(=O)OC1CC[C@@]2(C)C(CC[C@]3(C)C2CC=C2[C@@H]4C(C)[C@H](C)CCC4(C)CCC23C)[C@@]1(C)C(=O)O (stereo not given in full) | 53.1 µM | 49.9 µM | 40.6 µM | 43.3 µM | 38.7 µM | 45 µM | 53.4 µM | 64.9 µM | 40.4 µM | 50.2 µM |  |  |  |  |  |  |  |  |  | 
5 | C#COc1cccc(Nc2ncnc3cc(NC(=O)[C@H](C)Cl)ccc23)c1 | > 62.5 µM | > 62.5 µM | 4.3 µM | > 62.5 µM | > 62.5 µM | > 62.5 µM | > 62.5 µM | > 62.5 µM | > 62.5 µM |  | 4.72 µM | > 62.5 µM | 1.4 µM | 19.3 µM | 5.71 µM | 3.86 µM | 24.6 µM | 2.51 µM | 13 µM | 
6 | c1ccc([As]=[As]c2ccccc2)cc1 (stereo not given) | 2.8 µM | 3.08 µM | 2.72 µM | 0.876 µM | 3.41 µM | 2.8 µM | 4.15 µM | 10.5 µM | 3.48 µM | 3.47 µM | 1.42 µM | 1.22 µM | 1.27 µM | 0.221 µM | 1.72 µM | 1.13 µM | 1.46 µM | 1.55 µM | 1.82 µM | 1.62 µM
7 | CSCCCNC(=O)c1csc(-c2csc(CCNC(=O)CNC(=O)CNC(=O)OC(C)(C)C)n2)n1 | > 100 µM | > 100 µM | > 100 µM |  | > 100 µM | > 100 µM | > 100 µM | > 100 µM | > 100 µM | > 100 µM |  |  |  |  |  |  |  |  |  | 
8 | COc1cccc(C2C3=C(COC3=O)N(CCO)c3cc4c(cc32)OCO4)c1 (stereo not given) | > 10.6 µM |  | 0.356 µM | > 50 µM | 1.2 µM | 0.854 µM | > 50 µM | 45.2 µM | > 13.8 µM | 0.43 µM |  |  | 0.101 µM | 0.263 µM | 0.211 µM | 0.191 µM | 23.2 µM | 0.251 µM | 0.289 µM | 0.142 µM
9 | CCn1c2ccccc2c2ccc(C3C(C(=O)OC)=C(C)NC(C)=C3C(=O)OC)cc21 | > 100 µM |  | > 100 µM | > 100 µM | > 100 µM | > 100 µM | > 100 µM |  | > 100 µM |  |  |  |  |  |  |  |  |  |  | 
10 | CC1=C[C@H]2C[C@H](C)[C@H]3CC[C@H](C)[C@]4(C1)C(=O)C(O)=C(C)C(=O)[C@@]324 | > 100 µM |  | > 100 µM | > 100 µM | 47.2 µM | 48.9 µM | > 100 µM | 67.5 µM | > 100 µM | > 100 µM | 30.2 µM |  | 41.1 µM | 19.1 µM | 19.6 µM | 19 µM | 33 µM | 24.7 µM | 45.1 µM | 32.3 µM
11 | COc1cc(C2C3=C(COC3=O)N(CCO)c3cc4c(cc32)OCO4)cc(OC)c1O (stereo not given) | > 18.8 µM |  | 1.53 µM | > 50 µM | 4.65 µM | 4.07 µM | > 50 µM | 4.59 µM | > 26.7 µM |  | 2.27 µM |  | 0.343 µM | 1.97 µM | 1.53 µM | 1.48 µM | 3.72 µM | 1.3 µM | 2.03 µM | 
12 | Cc1ccc(NC(=O)/C(=N/N(C)C)C(C2OC(=O)c3ccccc32)[N+](=O)[O-])cc1 (stereo not given) |  | > 100 µM | > 100 µM | > 100 µM | > 100 µM |  | > 100 µM | > 100 µM | > 100 µM | > 100 µM |  |  |  |  |  |  |  |  |  | 
13 | COc1ccc(Nc2nc3cc(N)cc(N)c3nc2-c2ccccc2)cc1OC | > 100 µM |  | 32.1 µM | 38.2 µM | 39.6 µM | 41.2 µM | 57.1 µM | 50.2 µM | 87.5 µM | > 100 µM | 35.4 µM |  | 16.3 µM | 14.4 µM | 18.4 µM | 19.8 µM | 18.7 µM | 18.5 µM | 38.2 µM | 27.2 µM
14 | Cc1ccc(-c2nc([P+](c3ccccc3)(c3ccccc3)c3ccccc3)c(Nc3ccccc3)o2)cc1 | 2.41 µM | 1.16 µM | 1.63 µM |  | 2.02 µM | 2.78 µM |  | 3.31 µM | 3.08 µM | 2.42 µM | 1.16 µM | 0.188 µM | 0.457 µM |  | 0.659 µM | 0.995 µM |  | 1.27 µM | 1.44 µM | 0.808 µM
15 | CC12CCC3c4cc(Br)c(O)c(Br)c4CCC3C1CCC2O (stereo not given) |  |  | 18.7 µM | 83.8 µM | 25.3 µM | 70.1 µM | 34.5 µM | 49.4 µM | 51.4 µM | 59.4 µM |  |  |  |  |  |  |  |  |  | 
16 | CN(C)CCNC(=O)c1cccc2ccc(-c3ccc(-c4ccccc4)cc3)nc12 | 25.1 µM | 11.8 µM |  |  | 3.3 µM | 3 µM | 30.1 µM |  | 31.5 µM | 32.7 µM |  |  |  |  |  |  |  |  |  | 
17 | COc1ccc2[nH]c3c(C)cc([N+](=O)[O-])c(C)c3c2c1 | > 100 µM | 80.6 µM |  |  | 67.7 µM | > 100 µM | > 100 µM |  | 78.3 µM | 46 µM |  |  |  |  |  |  |  |  |  | 
18 | Cc1cc(=O)[nH]c(CNC(=O)c2cccc(C(=O)NCc3cc(=O)[nH]c(C)n3)c2)n1 | > 100 µM | > 100 µM |  |  | > 100 µM | > 100 µM | > 100 µM |  | > 100 µM | > 100 µM |  |  |  |  |  |  |  |  |  | 
19 | CCOC(=O)C1([Se]c2ccccc2)CCCC1=O (stereo not given) | > 100 µM | 54.5 µM |  |  | > 100 µM | 30.8 µM | 74.8 µM |  | > 100 µM | > 100 µM |  |  |  |  |  |  |  |  |  | 
20 | CC1=C(C)C2(O)C(=C(C)C1=O)/C(=C(/O)c1ccccc1)c1nc3ccccc3n12 (stereo not given) | 46.9 µM | 41.7 µM | 35.1 µM | 33.1 µM |  | 31.3 µM | 58.1 µM | 94.6 µM | 42.2 µM | 40 µM | 19.7 µM | 16.1 µM | 17.3 µM | 14.5 µM |  | 17.2 µM | 23.6 µM | 29.3 µM | 18.2 µM | 19.4 µM
21 | CN(/N=C/c1cccc2cccnc12)c1c([N+](=O)[O-])cc([N+](=O)[O-])cc1[N+](=O)[O-] | > 100 µM | > 100 µM |  |  | > 100 µM | > 100 µM | > 100 µM |  | > 100 µM | > 100 µM |  |  |  |  |  |  |  |  |  | 
22 | CN(C)c1ccc(C(c2ccc(Cl)cc2)c2ccc(N(C)C)cc2)cc1 | > 100 µM | > 100 µM | > 100 µM | > 100 µM | > 100 µM | > 100 µM |  | > 100 µM | > 100 µM | > 100 µM |  |  |  |  |  |  |  |  |  | 
23 | CCn1c2c(c3ccccc31)C(c1ccccc1)CC1C(=O)N(c3ccccc3)C(=O)C21 (stereo not given) | > 100 µM | 75.7 µM |  |  | > 100 µM | > 100 µM | > 100 µM |  | > 100 µM | > 100 µM |  |  |  |  |  |  |  |  |  | 
24 | CCCCCCCC(=O)OCC(=O)[C@]1(O)Cc2c(O)c3c(c(O)c2[C@@H](OC2CC(N)C(O)C(C)O2)C1)C(=O)c1c(OC)cccc1C3=O (stereo not given in full) | 1.25 µM |  | 1.88 µM | 1.2 µM | 0.767 µM | 0.778 µM |  |  | 0.879 µM |  | 0.0601 µM |  | 0.325 µM | 0.0512 µM | 0.137 µM | 0.0812 µM |  |  | 0.135 µM | 
25 | C#CC1(O)CCC2[C@@H]3CCc4cc(Oc5nc(F)nc(-c6c7ccccc7cn6C)n5)ccc4C3CC[C@@]21C (stereo not given in full) | > 100 µM | > 100 µM |  |  | > 100 µM | > 100 µM | > 100 µM |  | > 100 µM | > 100 µM |  |  |  |  |  |  |  |  |  | 
26 | COC1C2c3cc4c(cc3CC(C#N)(c3ccccc32)N1C(=O)c1ccccc1)OCO4 (stereo not given) | > 100 µM | > 100 µM |  |  | > 100 µM | > 100 µM | > 100 µM |  | > 100 µM | > 100 µM |  |  |  |  |  |  |  |  |  | 
